The values below come from PubChem BioAssay (NCI).

The structures appear in SMILES notation. Where “and” joins values, the source holds several entries; their conditions need not be identical. Equal values may be shown once.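 Where inhibition never reached the appropriate level, the endpoint shown equals the highest concentration tested. Otherwise, values were interpolated linearly from a five-concentration, 48-hour dose response in 96-well plates. At the GI50, growth is halved. TGI: concentration producing complete growth inhibition.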

Some test systems named below: CCRF-CEM leukemia; IGROV1 ovarian; SN12C renal; ACHN renal; SW-620 colon; UACC-257 melanoma; HL-60(TB) leukemia; MOLT-4 leukemia; SK-MEL-5 melanoma; LOX IMVI melanoma.
Holding throughout (test): DTP human tumour cell line panel, 48 h

Take `Cc1cc(C2CCCCC2)n(O)c(=O)c1`: the TGI (commonly the concentration at which net growth stops) in the test with CCRF-CEM leukemia is 74.5 µM; with IGROV1 ovarian it was greater than 100 µM; in the test with SN12C renal, greater than 100 µM; with ACHN renal it was greater than 100 µM; with SW-620 colon, greater than 100 µM; in the test on UACC-257 melanoma it was 21.9 µM and 8.45 µM. The TGI in the test with HL-60(TB) leukemia is 10.1 µM; in the test on MOLT-4 leukemia it was greater than 100 µM; with SK-MEL-5 melanoma it was 7.38 µM and 38.3 µM; in the test on LOX IMVI melanoma it was 80.3 µM and 80.1 µM. For the same compound, the GI50 (in general, the concentration giving 50% growth inhibition) was 0.989 µM with IGROV1 ovarian; 1.45 µM in the test on SN12C renal; 1.06 µM in the test on ACHN renal; 3.38 µM in the test on SW-620 colon; 2.6 µM in the test on UACC-257 melanoma; 1.49 µM with SK-MEL-5 melanoma. Moreover, the GI50 with LOX IMVI melanoma is 0.757 µM.
With `Cc1cccc(N2C(=O)C(Cl)=C(Cl)C2=O)c1`, the TGI is greater than 61 µM with CCRF-CEM leukemia; greater than 100 µM in the test on IGROV1 ovarian; greater than 100 µM in the test on SN12C renal; greater than 74.6 µM with ACHN renal; greater than 60.7 µM with SW-620 colon; greater than 100 µM in the test with UACC-257 melanoma. Further, the concentration for total growth inhibition (TGI) was greater than 100 µM in the test on HL-60(TB) leukemia, greater than 75.8 µM in the test on MOLT-4 leukemia, greater than 100 µM with SK-MEL-5 melanoma and greater than 100 µM in the test with LOX IMVI melanoma.
For the compound `COC(=O)C(=O)C(C(=O)C(=O)Nc1ccc(C)cc1C)c1nc2ccccc2[nH]c1=O` (configuration not stated), the TGI with CCRF-CEM leukemia, with IGROV1 ovarian, with SN12C renal, with ACHN renal, in the test with SW-620 colon and in the test on UACC-257 melanoma was greater than 100 µM throughout. Moreover, the TGI in the test with HL-60(TB) leukemia, with MOLT-4 leukemia, with SK-MEL-5 melanoma and with LOX IMVI melanoma was greater than 100 µM in each case.
For the compound `CCCNC(=S)N/N=C(\C)c1ccccn1`, the GI50 in the test with CCRF-CEM leukemia was 0.018 µM; in the test on IGROV1 ovarian, less than 0.01 µM; in the test with SN12C renal it was 0.268 µM; with ACHN renal, 0.0394 µM; in the test on SW-620 colon, 0.0498 µM; in the test with UACC-257 melanoma, 0.038 µM. Further, the GI50 in the test with MOLT-4 leukemia was 0.0524 µM; with SK-MEL-5 melanoma it was 0.213 µM; in the test with LOX IMVI melanoma, 0.0436 µM. For the same compound, the total growth inhibition concentration (TGI) with CCRF-CEM leukemia is greater than 100 µM; in the test with IGROV1 ovarian, greater than 100 µM; with SN12C renal, greater than 100 µM; in the test on ACHN renal, greater than 100 µM; in the test with SW-620 colon it was greater than 100 µM; in the test on UACC-257 melanoma it was 1.38 µM. In addition, the total growth inhibition concentration (TGI) with HL-60(TB) leukemia is 0.333 µM; in the test on MOLT-4 leukemia, 0.816 µM; in the test on SK-MEL-5 melanoma it was 2.55 µM; in the test with LOX IMVI melanoma it was greater than 100 µM.
Regarding `O=C(O)C(Sc1ccc(Cl)cc1)Sc1ccc(Cl)cc1`, the TGI in the test with CCRF-CEM leukemia, in the test with IGROV1 ovarian, with SN12C renal, in the test with ACHN renal, with SW-620 colon and in the test with UACC-257 melanoma was greater than 100 µM in each case. Further, the TGI in the test with HL-60(TB) leukemia, with MOLT-4 leukemia, in the test with SK-MEL-5 melanoma and in the test on LOX IMVI melanoma was greater than 100 µM in each case.
`COc1cc(Cn2c(-c3ccccc3)cc3c2-c2oncc2CC3)cc(OC)c1OC`: the GI50 was 0.857 µM with CCRF-CEM leukemia; 2.64 µM in the test on IGROV1 ovarian; 5.84 µM with SN12C renal; 0.961 µM in the test on ACHN renal; 0.42 µM with SW-620 colon; 20.2 µM with UACC-257 melanoma. Besides, the GI50 in the test with HL-60(TB) leukemia was 0.32 µM; with MOLT-4 leukemia it was 0.976 µM; with SK-MEL-5 melanoma it was 0.882 µM; in the test on LOX IMVI melanoma, 0.831 µM. The TGI in the test with CCRF-CEM leukemia, in the test with IGROV1 ovarian, in the test with SN12C renal, in the test with ACHN renal, in the test on SW-620 colon and in the test on UACC-257 melanoma was greater than 100 µM throughout. Moreover, the TGI in the test with HL-60(TB) leukemia is 1.36 µM; in the test with MOLT-4 leukemia, greater than 100 µM; with SK-MEL-5 melanoma it was 16.8 µM; with LOX IMVI melanoma, greater than 100 µM.
With `CCC1(O)C(=O)OCc2c1cc1n(c2=O)Cc2cc3c(N)cccc3nc2-1` (configuration not stated), the TGI stood at 0.0858 µM in the test with CCRF-CEM leukemia; 6.23 µM with IGROV1 ovarian; 0.595 µM in the test with SN12C renal; 0.157 µM with ACHN renal; 11.7 µM in the test on SW-620 colon; 2.62 µM in the test on UACC-257 melanoma. In addition, the TGI is 0.111 µM in the test on HL-60(TB) leukemia, 0.014 µM with MOLT-4 leukemia, 0.192 µM with SK-MEL-5 melanoma and 0.23 µM with LOX IMVI melanoma. Besides, the 50% growth inhibitory concentration (GI50) with SW-620 colon is 0.0531 µM.
Consider `COc1ccc(-n2cc(-c3cc(OC)c(OC)c(OC)c3)[nH]c2=S)cc1OC`, for which the GI50 with CCRF-CEM leukemia, with IGROV1 ovarian, with SN12C renal, in the test on ACHN renal, in the test with SW-620 colon and in the test with UACC-257 melanoma was greater than 100 µM throughout. The GI50 in the test on HL-60(TB) leukemia is greater than 100 µM; in the test with MOLT-4 leukemia it was 7.04 µM; in the test on SK-MEL-5 melanoma it was greater than 100 µM; in the test with LOX IMVI melanoma, greater than 100 µM. Besides, the TGI with CCRF-CEM leukemia, in the test on IGROV1 ovarian, in the test on SN12C renal, in the test with ACHN renal, with SW-620 colon and with UACC-257 melanoma was greater than 100 µM throughout. For the same compound, the TGI in the test with HL-60(TB) leukemia, in the test on MOLT-4 leukemia, with SK-MEL-5 melanoma and in the test on LOX IMVI melanoma was greater than 100 µM each time.
Regarding `N#Cc1cnsc1`, the concentration for total growth inhibition (TGI) in the test on CCRF-CEM leukemia, in the test on IGROV1 ovarian, in the test on SN12C renal, in the test with ACHN renal, in the test with SW-620 colon and with UACC-257 melanoma was greater than 100 µM each time. The concentration for total growth inhibition (TGI) with HL-60(TB) leukemia, in the test with MOLT-4 leukemia, with SK-MEL-5 melanoma and in the test on LOX IMVI melanoma was greater than 100 µM throughout.
